According to PMC13184988, “Enzymatic Bromination of Native Peptides for Late-Stage Structural Diversification via Suzuki–Miyaura Coupling” (ACS Chemical Biology, 2026):
Values joined by “and” are separate entries in the source; they are usually repeats but may differ in a detail not shown here. Equal entries are not always repeated. *1 amine or outer side, *2 acyl side, *3 side chain or, on linkers, in order; H or OH if unused. Where a SMILES comes first, the peptide text is derived from it. [ ]: non-standard residue; d: D form. X1 = O=C([C@H](Cc1c[nH]c2c(-c3cccc(C(F)(F)F)c3)cccc12)N[*:1])[*:2]; Trp(7-Br) = N[C@@H](Cc1c[nH]c2c(Br)cccc12)C(=O)O

Key:
E. coli XL10 [1] = assay: Bacterial minimal inhibitory concentration, 18 h growth inhibition assay; type: cell-based
E. coli XL10 [2] = assay: Minimal bactericidal concentration (Petri dish and spot assay); type: cell-based
Method: 0.5%. After incubation, the cells were washed 2 × 0.5 mg/mL heparin sulfate in PBS and then washed with 2 × FluoroBrite DMEM. FluoroBrite DMEM (200 µL) was added to each well for imaging. 1 drop of NucRed nuclear counterstain was added to visualize the cell nuclei. The cells were imaged using a Nikon microscope equipped with an Orca-Fire camera. Fiji was used for […]
. Fluorescence images were background corrected and individual nuclei were segmented based on a threshold intensity in the NucRed […]
Mueller-Hinton II cation-adjusted broth (10 mL) was inoculated with E. coli XL10 and incubated overnight with shaking at 37°C. The next day, the overnight culture was diluted to an OD600 of 0.5 […]
OD600 0.5 culture was further diluted 20-fold into fresh Mueller-Hinton II cation-adjusted broth […]
From each triplicate experiment, 100 µL of the 18-hour minimal inhibitory growth culture (see above) was plated on a petri dish containing Mueller-Hinton II cation-adjusted agar. […] The next morning, the bacterial growth on each triplicate plate was assessed. […]
Using a multichannel pipette, 3 μL from each triplicate of the 18-hour minimal inhibitory growth culture (see above) was spotted on a square petri dish containing Mueller-Hinton II cation-adjusted agar. […] The next morning, the bacterial growth on each triplicate plate was assessed. […]

4V = type: biochemical

Compound	fold decrease in MIC relative to the parent peptide (RW)3 (E. coli XL10 [1])	fold decrease in MBC relative to the parent peptide (RW)3 (E. coli XL10 [2])	Average Percent Conversion (4V) [%]	Percent Br2 Conversion (EIC) (4V) [%]	Percent Br Conversion (EIC) (4V)	Total Percent Conversion (4V)	4V-catalyzed conversion to the monobrominated product (4V; unmodified bioactive peptides, 1 mM peptide, 10 mM NaBr, 25 μM 4V, 25 mM HEPES pH 7.4, 24 h ambient, n = 3 independent experiments) [%]
N=C(N)NCCC[C@H](NC(=O)[C@H](Cc1c[nH]c2ccccc12)NC(=O)[C@H](CCCNC(=N)N)NC(=O)[C@H](Cc1c[nH]c2ccccc12)NC(=O)[C@@H](N)CCCNC(=N)N)C(=O)N[C@@H](Cc1c[nH]c2c(Br)cccc12)C(N)=O [Br-(RW)3] (H-RWRWR[Trp(7-Br)]-NH2; N-terminus assumed)	approximately 4 fold	approximately 4 fold					
N=C(N)NCCC[C@H](NC(=O)[C@H](Cc1c[nH]c2ccccc12)NC(=O)[C@H](CCCNC(=N)N)NC(=O)[C@H](Cc1c[nH]c2ccccc12)NC(=O)[C@@H](N)CCCNC(=N)N)C(=O)N[C@@H](Cc1c[nH]c2c(-c3cccc(C(F)(F)F)c3)cccc12)C(N)=O [CF3(−RW)3] (H-RWRWR[X1]-NH2; N-terminus assumed)		4 fold					
galanin			21.379	0	21.5543% and 21.2037%	21.2037% and 21.5543%	16.8 ± 0.2
